Key:
[1] = target: T1, human adrenergic-α2A receptor (Homo sapiens, UniProt P08913); test: Radioligand binding experiment for hα2A-adrenergic receptor ([3H]raulwolscine); conditions: [3H]raulwolscine 1 nM, 60 minutes at 25° C.; for IC50: read-out: h-α2A pIC50 (converted)
T1 construct: expressed in transfected cells; host or cells: CHO cells, stably transfected; membrane preparation
T1 sequence (P08913 1-465): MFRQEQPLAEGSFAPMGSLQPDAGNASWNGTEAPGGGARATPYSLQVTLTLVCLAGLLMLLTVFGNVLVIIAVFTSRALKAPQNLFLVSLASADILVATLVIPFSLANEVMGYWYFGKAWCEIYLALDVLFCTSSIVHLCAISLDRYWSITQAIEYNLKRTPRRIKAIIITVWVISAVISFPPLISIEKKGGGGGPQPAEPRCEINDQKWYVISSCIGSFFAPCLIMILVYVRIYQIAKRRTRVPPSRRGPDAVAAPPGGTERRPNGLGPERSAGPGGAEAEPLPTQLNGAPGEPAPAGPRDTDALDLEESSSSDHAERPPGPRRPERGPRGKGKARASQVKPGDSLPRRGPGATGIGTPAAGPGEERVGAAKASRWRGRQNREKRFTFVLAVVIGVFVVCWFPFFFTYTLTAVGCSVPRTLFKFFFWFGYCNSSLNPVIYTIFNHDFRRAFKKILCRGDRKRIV
Experimental: (§1) The interaction of the compounds of Formula (I) with α2C-adrenoceptor receptors was assessed in in vitro radioligand binding experiments. In general, a low concentration of a radioligand with a high binding affinity for a particular receptor or transporter is incubated with a sample of a tissue preparation enriched in a particular receptor or transporter or with a preparation of cells expressing cloned human receptors in a buffered medium. During the incubation, the radioligand binds to the receptor or transporter. When equilibrium of binding is reached, the receptor bound radioactivity is separated from the non-bound radioactivity, and the receptor- or transporter-bound activity is counted. The interaction of the test compounds with the receptor is assessed in competition binding experiments. Various concentrations of the test compound are added to the incubation mixture containing the receptor- or transporter preparation and the radioligand. The test compound in proportion to its binding affinity and its concentration inhibits binding of the radioligand. The radioligand used for […] receptor binding was [^3H]-raulwolscine.
(§2) CHO cells, stabile transfected with human adrenergic-α2A, -α2B or α2C receptor cDNA, were cultured in Dulbecco's Modified Eagle's Medium (DMEM)/Nutrient mixture Ham's F12 (ratio 1:1)(Gibco, Gent-Belgium) supplemented with 10% heat inactivated fetal calf serum (Life Technologies, Merelbeke-Belgium) and antibiotics (100 IU/ml penicillin G, 100 μg/ml streptomycin sulphate, 110 μg/ml pyruvic acid and 100 μg/ml L-glutamine). One day before collection, cells were induced with 5 mM sodiumbutyrate. Upon 80-90% of confluence, cells were scraped in phosphate buffered saline without Ca^2+ and Mg^2+ and collected by centrifugation at 1500×g for 10 minutes. The cells were homogenised in Tris-HCl 50 mM using an Ultraturrax homogenizer and centrifuged for 10 minutes at 23,500×g. The pellet was washed once by resuspension and rehomogenization and the final pellet was resuspended in Tris-HCl, divided in 1 ml aliquots and stored at −70° C.
(§3) Membranes were thawed and re-homogenized in incubation buffer (glycylglycine 25 mM, pH 8.0). In a total volume of 500 μl, 2-10 μg protein was incubated with [^3H]raulwolscine (NET-722) (New England Nuclear, USA) (1 nM final concentration) with or without competitor for 60 minutes at 25° C. followed by rapid filtration over GF/B filter using a Filtermate196 harvester (Packard, Meriden, Conn.). Filters were rinsed extensively with ice-cold rinsing buffer (Tris-HCl 50 mM pH 7.4). Filter-bound radioactivity was determined by scintillation counting in a Topcount (Packard, Meriden, Conn.) and results were expressed as counts per minute (cpm). Non-specific binding was determined in the presence of 1 μM oxymetazoline for hα2A- and hα2B receptors and 1 μM spiroxatrine for hα2C receptors.
(§4) Data from assays in the presence of compound were calculated as a percentage of total binding measured in the absence of test compound. Inhibition curves, plotting percent of total binding versus the log value of the concentration of the test compound, were automatically generated, and sigmoidal inhibition curves were fitted using non-linear regression. The pIC50 values of test compounds were derived from individual curves.

[2] = target: T2, human adrenergic-α2C receptor (Homo sapiens, UniProt P18825); test: Radioligand binding experiment for hα2C-adrenoceptor ([3H]raulwolscine); conditions: [3H]raulwolscine 1 nM, 60 minutes at 25° C.; for IC50: read-out: h-α2C pIC50 (converted)
T2 construct: expressed in transfected cells; host or cells: CHO cells, stably transfected; membrane preparation
T2 sequence (P18825 1-462): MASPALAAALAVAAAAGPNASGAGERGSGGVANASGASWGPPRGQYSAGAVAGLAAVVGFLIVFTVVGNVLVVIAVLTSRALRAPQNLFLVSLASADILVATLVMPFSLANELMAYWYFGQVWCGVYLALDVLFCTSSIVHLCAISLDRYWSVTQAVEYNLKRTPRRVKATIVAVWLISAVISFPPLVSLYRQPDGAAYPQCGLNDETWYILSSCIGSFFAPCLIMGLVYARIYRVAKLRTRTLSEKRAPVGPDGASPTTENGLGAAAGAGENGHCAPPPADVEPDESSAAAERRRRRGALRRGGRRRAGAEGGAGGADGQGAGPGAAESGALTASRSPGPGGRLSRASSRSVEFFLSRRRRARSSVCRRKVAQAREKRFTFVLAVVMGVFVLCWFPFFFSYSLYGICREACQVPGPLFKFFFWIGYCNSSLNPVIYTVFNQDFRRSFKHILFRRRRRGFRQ
Experimental: as §1, §2, §3, §4

5HT-transporter = target: T3, 5HT-transporter (Homo sapiens, UniProt P31645); test: Binding experiment for the 5HT-transporter ([3H]paroxetine, human platelet membranes); conditions: [3H]paroxetine 0.5 nM, 60 min at 25° C.; for IC50: read-out: h-5HTT pIC50 (converted)
T3 construct: Human platelet membranes (Oceanix Biosciences Corporation, Hanover, Md., USA) were thawed; tissue Oceanix Biosciences Corporation, Hanover, Md., USA; host or cells: human platelet membranes
Experimental: as §1
Human platelet membranes (Oceanix Biosciences Corporation, Hanover, Md., USA) were thawed, diluted in buffer (Tris-HCl 50 mM, 120 mM NaCl and 5 mM KCl) and quickly (max 3 s) homogenised with an Ultraturrax homogenizer. […] Incubation was stopped by rapid filtration of the incubation mixture over GF/B filters, pre-wetted with 0.1% polyethyleneamine, using a Filtermate196 harvester (Packard, Meriden, Conn.). Filters were rinsed extensively with ice-cold buffer and radioactivity on the filters was counted in a Topcount liquid scintillation counter (Packard, Meriden, Conn.). Data were expressed as cpm. Imipramine (at 1 μM final concentration) was used to determine the non-specific binding.
as §4

T3 sequence (P31645 whole entry): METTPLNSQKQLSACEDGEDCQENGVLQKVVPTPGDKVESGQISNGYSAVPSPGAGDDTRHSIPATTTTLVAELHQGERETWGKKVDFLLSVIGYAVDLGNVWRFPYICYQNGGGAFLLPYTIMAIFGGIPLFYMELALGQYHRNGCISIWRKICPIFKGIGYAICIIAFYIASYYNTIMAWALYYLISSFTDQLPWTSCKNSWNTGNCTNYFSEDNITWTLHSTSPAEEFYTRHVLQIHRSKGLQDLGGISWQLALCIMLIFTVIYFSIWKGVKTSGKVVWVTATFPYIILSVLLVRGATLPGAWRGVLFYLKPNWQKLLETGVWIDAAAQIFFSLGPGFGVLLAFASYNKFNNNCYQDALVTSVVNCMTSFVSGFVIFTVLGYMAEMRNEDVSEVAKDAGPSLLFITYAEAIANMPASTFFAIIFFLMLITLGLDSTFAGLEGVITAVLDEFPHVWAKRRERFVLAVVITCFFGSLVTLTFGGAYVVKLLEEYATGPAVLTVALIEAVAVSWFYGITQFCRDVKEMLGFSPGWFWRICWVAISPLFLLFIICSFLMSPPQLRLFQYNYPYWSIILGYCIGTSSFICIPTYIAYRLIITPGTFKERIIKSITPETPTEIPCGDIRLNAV

| Compound | h-α2A pIC50 [1] | h-α2C pIC50 [2] | h-5HTT pIC50 (5HT-transporter) | IC50 [1] | IC50 [2] | IC50 (5HT-transporter) |
| --- | --- | --- | --- | --- | --- | --- |
| O=C(NCc1ccc(-n2ccnc(NC3CCN(Cc4ccc5ccccc5c4)CC3)c2=O)cc1)C1CCCO1 (racemic) [1-99] | 6.2 | 8.1 | 7.7 | – | – | – |
| NCc1ccc(-n2ccnc(NC3CCN(Cc4ccc5ccccc5c4)CC3)c2=O)cc1 [1-01] | – | – | – | 200 nM | 20 nM | 20 nM |
| NCc1ccc(Cn2ccnc(NC3CCN(Cc4ccc5ccccc5c4)CC3)c2=O)cc1 [1-02] | – | – | – | 50.1 nM | 12.6 nM | 63.1 nM |
| NCCCn1ccnc(NC2CCN(Cc3ccc4ccccc4c3)CC2)c1=O [1-03] | – | – | – | 200 nM | 50.1 nM | 200 nM |
| CNCCCn1ccnc(NC2CCN(Cc3ccc4ccccc4c3)CC2)c1=O [1-04] | – | – | – | 251 nM | 25.1 nM | 251 nM |
| CCCNCc1ccc(-n2ccnc(NC3CCN(Cc4ccc5ccccc5c4)CC3)c2=O)cc1 [1-06] | – | – | – | 251 nM | 10 nM | 20 nM |
| O=c1c(NC2CCN(Cc3ccc4ccccc4c3)CC2)nccn1-c1ccc(CNCCF)cc1 [1-07] | – | – | – | 126 nM | 6.31 nM | 7.94 nM |
| O=c1c(NC2CCN(Cc3ccc4ccccc4c3)CC2)nccn1-c1ccc(CNCCF)c(F)c1 [1-08] | – | – | – | 126 nM | 7.94 nM | 10 nM |
| CCNC(=O)Cc1ccc(-n2ccnc(NC3CCN(Cc4ccc5ccccc5c4)CC3)c2=O)cc1 [1-10] | – | – | – | 398 nM | 31.6 nM | 15.8 nM |
| CCCNC(=O)Cc1ccc(-n2ccnc(NC3CCN(Cc4ccc5ccccc5c4)CC3)c2=O)cc1 [1-11] | – | – | – | 501 nM | 20 nM | 20 nM |
| CN(C)CCCn1ccnc(NC2CCN(Cc3ccc4ccccc4c3)CC2)c1=O [1-12] | – | – | – | 200 nM | 31.6 nM | 251 nM |
| CCCN(C)C(=O)Cn1ccnc(NC2CCN(Cc3ccc4ccccc4c3)CC2)c1=O [1-13] | – | – | – | 501 nM | 63.1 nM | 2000 nM |
| CN(CCF)Cc1ccc(-n2ccnc(NC3CCN(Cc4ccc5ccccc5c4)CC3)c2=O)cc1 [1-14] | 6.9 | 8.1 | 7.8 | – | – | – |
| CN(C)C(=O)Cn1ccnc(NC2CCN(Cc3ccc4ccccc4c3)CC2)c1=O [1-15] | – | – | – | 398 nM | 126 nM | 3160 nM |
| CN(C(=O)Cn1ccnc(NC2CCN(Cc3ccc4ccccc4c3)CC2)c1=O)C1CCCCC1 [1-16] | – | – | – | 316 nM | 25.1 nM | 251 nM |
| CCCCN(Cc1ccccc1)C(=O)Cn1ccnc(NC2CCN(Cc3ccc4ccccc4c3)CC2)c1=O [1-18] | – | – | – | 200 nM | 39.8 nM | 79.4 nM |
| O=C(Cn1ccnc(NC2CCN(Cc3ccc4ccccc4c3)CC2)c1=O)NCC(c1ccccc1)c1ccccc1 [1-19] | – | – | – | 398 nM | 63.1 nM | 79.4 nM |

| Compound | h-α2A pIC50 [1] | h-α2C pIC50 [2] | h-5HTT pIC50 (5HT-transporter) | IC50 [1] | IC50 [2] | IC50 (5HT-transporter) |
| --- | --- | --- | --- | --- | --- | --- |
| CCOC(CN(Cc1ccccc1)C(=O)Cn1ccnc(NC2CCN(Cc3ccc4ccccc4c3)CC2)c1=O)OCC [1-20] | – | – | – | 398 nM | 25.1 nM | 100 nM |
| COCCN(C)Cc1ccc(-n2ccnc(NC3CCN(Cc4ccc5ccccc5c4)CC3)c2=O)cc1 [1-21] | – | – | – | 251 nM | 15.8 nM | 15.8 nM |
| COCCNCc1ccc(-n2ccnc(NC3CCN(Cc4ccc5ccccc5c4)CC3)c2=O)cc1 [1-22] | – | – | – | 200 nM | 15.8 nM | 15.8 nM |
| CCCC(=O)Nc1cccc(-n2ccnc(NC3CCN(Cc4ccc5ccccc5c4)CC3)c2=O)c1 [1-23] | – | – | – | 39.8 nM | 10 nM | 6.31 nM |
| CCCC(=O)NCc1ccc(-n2ccnc(NC3CCN(Cc4ccc5ccccc5c4)CC3)c2=O)cc1 [1-24] | – | – | – | 316 nM | 25.1 nM | 6.31 nM |
| CCCC(=O)NCc1ccc(-n2ccnc(NC3CCN(Cc4ccc5ccccc5c4)CC3)c2=O)cc1OC [1-25] | – | – | – | 631 nM | 39.8 nM | 12.6 nM |
| CC(CC(=O)NCc1ccc(-n2ccnc(NC3CCN(Cc4ccc5ccccc5c4)CC3)c2=O)cc1)CC(C)(C)C (stereo not shown) [1-27] | – | – | – | 631 nM | 63.1 nM | 20 nM |
| O=C(CC1CCCC1)NCc1ccc(-n2ccnc(NC3CCN(Cc4ccc5ccccc5c4)CC3)c2=O)cc1 [1-28] | 6.3 | 7.5 | 8.1 | – | – | – |
| CCCC(=O)N(Cc1ccc(-n2ccnc(NC3CCN(Cc4ccc5ccccc5c4)CC3)c2=O)cc1)C(=O)CCC [1-29] | – | – | – | 398 nM | 39.8 nM | 20 nM |
| COCCC(=O)NCc1ccc(-n2ccnc(NC3CCN(Cc4ccc5ccccc5c4)CC3)c2=O)cc1 [1-30] | – | – | – | 316 nM | 31.6 nM | 15.8 nM |
| C=CCCC(=O)NCc1ccc(-n2ccnc(NC3CCN(Cc4ccc5ccccc5c4)CC3)c2=O)cc1 [1-31] | 6.5 | 7.5 | 8.1 | – | – | – |
| CC(C)(C)OC(=O)NCCCn1ccnc(NC2CCN(Cc3ccc4ccccc4c3)CC2)c1=O [1-32] | – | – | – | 200 nM | 12.6 nM | 31.6 nM |
| CC(C)(C)OC(=O)NCc1ccc(-n2ccnc(NC3CCN(Cc4ccc5ccccc5c4)CC3)c2=O)cc1 [1-33] | – | – | – | 501 nM | 79.4 nM | 25.1 nM |
| O=c1c(NC2CCN(Cc3ccc4ccccc4c3)CC2)nccn1-c1ccc(CNCC2CCCO2)cc1 (stereo not shown) [1-79b] | – | – | – | – | 6.31 nM | 2.51 nM |
| O=C1c2ccccc2C(=O)N1CC#CCn1ccnc(NC2CCN(Cc3ccc4ncccc4c3)CC2)c1=O [9-11] | – | – | – | – | 12.6 nM | – |
| O=C1c2ccccc2C(=O)N1CC#CCn1ccnc(NC2CCN(Cc3ccc4ncccc4c3)CC2)c1=O [9-30] | – | – | – | – | 31.6 nM | – |

Reference: US20080269251A1, “Substituted Pyrazinone Derivatives as Alpha2C-Adrenoreceptor Antagonists” (priority 2005, published 2008)
